Experimental data from ChEMBL document CHEMBL1201862, “PubChem BioAssay data set” (2004).
Calls of active or inactive are those of the source.

Legend:
[1] = target: T1, Apoptotic protease-activating factor 1 (Homo sapiens, UniProt O14727); test: SAR analysis of small molecule Activators of Apaf-1 in a Fluorescent assay - set 2.; assay type: functional; conditions: read-out: EC50_Mean
T1 sequence (O14727 whole entry): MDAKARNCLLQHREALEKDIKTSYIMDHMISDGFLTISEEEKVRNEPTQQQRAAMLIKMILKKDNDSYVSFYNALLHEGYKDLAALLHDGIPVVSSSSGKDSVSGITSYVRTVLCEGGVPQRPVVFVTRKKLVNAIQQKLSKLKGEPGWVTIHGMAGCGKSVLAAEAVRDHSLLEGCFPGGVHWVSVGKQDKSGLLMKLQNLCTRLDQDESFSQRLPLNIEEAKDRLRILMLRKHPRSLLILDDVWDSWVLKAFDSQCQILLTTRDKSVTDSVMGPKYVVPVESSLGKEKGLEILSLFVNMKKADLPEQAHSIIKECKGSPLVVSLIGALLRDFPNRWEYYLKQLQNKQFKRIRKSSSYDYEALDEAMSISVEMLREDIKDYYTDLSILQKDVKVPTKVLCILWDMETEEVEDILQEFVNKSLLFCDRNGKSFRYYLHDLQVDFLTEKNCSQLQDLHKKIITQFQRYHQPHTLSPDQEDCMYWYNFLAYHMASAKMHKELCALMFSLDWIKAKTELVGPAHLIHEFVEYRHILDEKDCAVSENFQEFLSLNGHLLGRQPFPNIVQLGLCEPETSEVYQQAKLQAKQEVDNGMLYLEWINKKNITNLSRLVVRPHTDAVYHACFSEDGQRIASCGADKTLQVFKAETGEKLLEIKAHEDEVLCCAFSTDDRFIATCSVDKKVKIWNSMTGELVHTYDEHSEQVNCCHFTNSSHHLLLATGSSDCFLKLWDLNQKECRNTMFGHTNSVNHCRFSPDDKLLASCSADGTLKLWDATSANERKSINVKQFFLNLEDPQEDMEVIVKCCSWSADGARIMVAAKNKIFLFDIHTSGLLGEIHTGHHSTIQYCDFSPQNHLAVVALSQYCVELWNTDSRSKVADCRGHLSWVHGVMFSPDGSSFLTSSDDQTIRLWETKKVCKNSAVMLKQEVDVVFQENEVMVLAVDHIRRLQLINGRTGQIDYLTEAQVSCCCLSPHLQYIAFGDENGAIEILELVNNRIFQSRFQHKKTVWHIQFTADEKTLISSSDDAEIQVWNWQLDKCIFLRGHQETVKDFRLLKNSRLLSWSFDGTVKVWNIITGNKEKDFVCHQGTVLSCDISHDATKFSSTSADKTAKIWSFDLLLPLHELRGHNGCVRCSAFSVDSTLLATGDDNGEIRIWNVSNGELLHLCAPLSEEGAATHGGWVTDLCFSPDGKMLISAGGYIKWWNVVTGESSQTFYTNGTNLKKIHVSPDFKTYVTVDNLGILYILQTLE

[2] = SAR analysis of small molecule activators of Apaf-1 using a LZ-Caspase-9/Caspase-3 Fluorescent Selectivity assay - Set 2.; assay type: functional; conditions: read-out: EC50_Mean
[3] = target: Heat shock cognate 71 kDa protein (Homo sapiens, UniProt P11142); test: In Vitro Hsc70 Dose Response Fluorescence Polarization Assay. [Related pubchem assays: 1072 ]
[4] = target: T2, Tyrosine-protein phosphatase non-receptor type 7 (Homo sapiens, UniProt P35236); assay type: functional
T2 sequence (P35236 whole entry): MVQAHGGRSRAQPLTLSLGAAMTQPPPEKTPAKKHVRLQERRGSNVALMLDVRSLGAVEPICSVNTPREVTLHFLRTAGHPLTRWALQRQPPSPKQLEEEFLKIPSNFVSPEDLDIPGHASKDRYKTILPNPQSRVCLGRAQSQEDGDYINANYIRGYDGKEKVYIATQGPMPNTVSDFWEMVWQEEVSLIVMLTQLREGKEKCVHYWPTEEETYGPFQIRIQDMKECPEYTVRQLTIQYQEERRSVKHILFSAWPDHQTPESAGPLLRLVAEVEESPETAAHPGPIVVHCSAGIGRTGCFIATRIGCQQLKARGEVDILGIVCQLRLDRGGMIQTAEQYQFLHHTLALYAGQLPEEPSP

[5] = target: T3, Zinc finger protein mex-5 (Caenorhabditis elegans, UniProt Q9XUB2); test: potency of MEX-5 RNA-binding blockers – biochemical, C. elegans, fluorescence polarization, dose response (AID 1960)
T3 sequence (Q9XUB2 whole entry): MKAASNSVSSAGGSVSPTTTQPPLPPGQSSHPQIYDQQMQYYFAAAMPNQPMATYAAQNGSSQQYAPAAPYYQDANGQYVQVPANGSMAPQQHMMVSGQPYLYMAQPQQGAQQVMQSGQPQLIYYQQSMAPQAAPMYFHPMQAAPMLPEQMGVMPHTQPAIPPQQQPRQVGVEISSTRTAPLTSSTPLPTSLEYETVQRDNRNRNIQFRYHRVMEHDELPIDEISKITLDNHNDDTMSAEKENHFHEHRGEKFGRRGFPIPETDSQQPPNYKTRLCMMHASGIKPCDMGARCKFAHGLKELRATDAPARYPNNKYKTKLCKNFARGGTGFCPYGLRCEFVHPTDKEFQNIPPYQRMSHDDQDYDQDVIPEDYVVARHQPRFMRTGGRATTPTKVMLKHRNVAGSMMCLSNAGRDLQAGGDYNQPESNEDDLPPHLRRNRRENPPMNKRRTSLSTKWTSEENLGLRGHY

[6] = target: Glyceraldehyde-3-phosphate dehydrogenase (Homo sapiens, UniProt P04406)
[7] = target: T4, Dual specificity protein phosphatase 6 (Rattus norvegicus, UniProt Q64346)
T4 sequence (Q64346 whole entry): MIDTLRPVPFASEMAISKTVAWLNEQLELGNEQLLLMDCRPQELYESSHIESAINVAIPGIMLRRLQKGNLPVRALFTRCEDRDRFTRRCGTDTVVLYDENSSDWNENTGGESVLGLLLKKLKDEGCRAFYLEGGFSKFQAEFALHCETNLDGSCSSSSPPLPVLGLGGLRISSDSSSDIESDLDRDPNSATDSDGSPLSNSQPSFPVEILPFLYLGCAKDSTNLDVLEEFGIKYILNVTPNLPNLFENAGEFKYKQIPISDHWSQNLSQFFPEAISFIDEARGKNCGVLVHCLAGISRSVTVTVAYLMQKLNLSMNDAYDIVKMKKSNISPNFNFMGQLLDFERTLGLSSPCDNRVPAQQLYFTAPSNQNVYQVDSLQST

[8] = target: T5, DNA dC->dU-editing enzyme APOBEC-3G (Homo sapiens, UniProt Q9HC16); test: inhibition of APOBEC3G ssDNA deamination – biochemical, fluorescence, single-stranded DNA substrate, SAR follow-up (AID 602136); assay type: functional; conditions: read-out: IC50_Mean
[9] = target: Heat shock 70 kDa protein 1A (Homo sapiens, UniProt P0DMV8); test: inhibition of Hsp70 binding activity – biochemical, fluorescence polarization, SAR follow-up (AID 1072)
[10] = target: T6, DNA dC->dU-editing enzyme APOBEC-3A (Homo sapiens, UniProt P31941); test: SAR analysis of small molecule inhibitors of APOBEC3A DNA Deaminase via a fluorescence-based single-stranded DNA deaminase assay.; assay type: functional; conditions: read-out: IC50_Mean
[11] = target: Induced myeloid leukemia cell differentiation protein Mcl-1 (Homo sapiens, UniProt Q07820); assay type: functional
[12] = target: T7, RNA-binding protein pos-1 (Caenorhabditis elegans, UniProt G5EF15); test: disruptors of C. elegans POS-1 RNA interaction – biochemical, fluorescence polarization, dose response (AID 1964);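 note: purified POS-1 fused to maltose binding protein made in E. coli; potency of compounds blocking POS-1 binding to fluorescent RNA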
T7 sequence (G5EF15 whole entry): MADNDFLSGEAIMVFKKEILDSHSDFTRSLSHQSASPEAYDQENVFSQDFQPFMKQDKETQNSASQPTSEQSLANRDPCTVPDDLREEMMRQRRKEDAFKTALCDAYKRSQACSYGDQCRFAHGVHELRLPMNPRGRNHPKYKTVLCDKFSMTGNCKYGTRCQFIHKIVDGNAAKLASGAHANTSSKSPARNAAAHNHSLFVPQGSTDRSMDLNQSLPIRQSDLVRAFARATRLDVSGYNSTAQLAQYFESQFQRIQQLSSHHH

[13] = target: Eukaryotic translation initiation factor 4E (Mus musculus, UniProt P63073); test: blockers of eIF4G binding by eIF4E – biochemical, TR-FRET, dose response (AID 855); assay type: functional;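 note: potency for disrupting eIF4E binding to eIF4GI seen as loss of FRET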
[14] = target: Large T antigen (Simian virus 40, UniProt P03070); assay type: functional, Betapolyomavirus macacae;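 note: Confirmatory-stage PubChem screen for compounds that inhibit SV40 T antigen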
[15] = target: T6, DNA dC->dU-editing enzyme APOBEC-3A; test: SAR analysis of small molecule inhibitors of APOBEC3A DNA Deaminase via a fluorescence-based single-stranded DNA deaminase assay - Set 2.; assay type: functional; conditions: read-out: IC50_Mean
[16] = target: T4, Dual specificity protein phosphatase 6; assay type: functional
[17] = target: T4, Dual specificity protein phosphatase 6; test: inhibition of rat DUSP6 enzyme activity – biochemical, in vitro, primary screen (AID 425)
[18] = target: T5, DNA dC->dU-editing enzyme APOBEC-3G; test: SAR analysis of small molecule inhibitors of APOBEC3G DNA Deaminase via a fluorescence-based single-stranded DNA deaminase assay - Set 2.; assay type: functional; conditions: read-out: IC50_Mean
[19] = target: T8, Bcl-2-like protein 10 (Homo sapiens, UniProt Q9HD36); test: Bcl-B/TR3 peptide binding disruption – biochemical, fluorescence polarization, FITC-TR3 peptide, selectivity assay for Bfl-1 inhibitor project, primary screen (AID 748);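 note: fluorescence polarization from a fluorescein-labelled TR3 peptide binding purified Bcl-B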
T8 sequence (Q9HD36 whole entry): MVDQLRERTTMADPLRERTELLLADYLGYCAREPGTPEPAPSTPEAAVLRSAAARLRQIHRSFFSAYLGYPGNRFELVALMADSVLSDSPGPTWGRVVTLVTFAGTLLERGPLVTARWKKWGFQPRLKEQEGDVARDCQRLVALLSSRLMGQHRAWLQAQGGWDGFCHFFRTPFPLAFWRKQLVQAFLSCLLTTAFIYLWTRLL

T6 sequence (P31941 whole entry): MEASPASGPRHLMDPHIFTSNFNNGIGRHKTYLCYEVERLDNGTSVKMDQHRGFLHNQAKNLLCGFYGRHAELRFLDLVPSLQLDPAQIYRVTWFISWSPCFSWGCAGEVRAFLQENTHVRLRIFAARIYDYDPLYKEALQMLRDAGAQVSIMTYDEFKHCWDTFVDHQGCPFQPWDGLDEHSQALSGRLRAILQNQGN
T5 sequence (Q9HC16 whole entry): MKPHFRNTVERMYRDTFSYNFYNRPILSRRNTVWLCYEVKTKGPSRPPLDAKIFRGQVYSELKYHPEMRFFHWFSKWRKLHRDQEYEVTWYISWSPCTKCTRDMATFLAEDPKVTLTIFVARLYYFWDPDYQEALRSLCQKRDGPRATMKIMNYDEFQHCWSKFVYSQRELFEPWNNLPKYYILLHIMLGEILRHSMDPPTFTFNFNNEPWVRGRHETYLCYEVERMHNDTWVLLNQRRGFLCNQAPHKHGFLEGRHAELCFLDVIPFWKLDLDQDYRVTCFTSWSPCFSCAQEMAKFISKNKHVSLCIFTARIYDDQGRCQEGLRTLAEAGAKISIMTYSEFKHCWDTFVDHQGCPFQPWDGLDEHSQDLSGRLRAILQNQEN
Induced myeloid leukemia cell differentiation protein Mcl-1, sequence (Q07820 whole entry, the tested form may be a part): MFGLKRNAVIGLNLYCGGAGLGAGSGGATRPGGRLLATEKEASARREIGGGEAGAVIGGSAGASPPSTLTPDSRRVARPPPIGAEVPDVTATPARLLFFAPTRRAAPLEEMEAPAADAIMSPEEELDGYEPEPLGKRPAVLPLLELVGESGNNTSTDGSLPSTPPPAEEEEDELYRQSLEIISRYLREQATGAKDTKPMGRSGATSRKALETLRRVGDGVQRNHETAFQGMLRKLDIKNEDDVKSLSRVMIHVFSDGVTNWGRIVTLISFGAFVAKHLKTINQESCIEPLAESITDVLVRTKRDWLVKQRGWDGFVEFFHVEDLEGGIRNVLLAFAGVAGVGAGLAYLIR
Heat shock 70 kDa protein 1A, sequence (P0DMV8 whole entry): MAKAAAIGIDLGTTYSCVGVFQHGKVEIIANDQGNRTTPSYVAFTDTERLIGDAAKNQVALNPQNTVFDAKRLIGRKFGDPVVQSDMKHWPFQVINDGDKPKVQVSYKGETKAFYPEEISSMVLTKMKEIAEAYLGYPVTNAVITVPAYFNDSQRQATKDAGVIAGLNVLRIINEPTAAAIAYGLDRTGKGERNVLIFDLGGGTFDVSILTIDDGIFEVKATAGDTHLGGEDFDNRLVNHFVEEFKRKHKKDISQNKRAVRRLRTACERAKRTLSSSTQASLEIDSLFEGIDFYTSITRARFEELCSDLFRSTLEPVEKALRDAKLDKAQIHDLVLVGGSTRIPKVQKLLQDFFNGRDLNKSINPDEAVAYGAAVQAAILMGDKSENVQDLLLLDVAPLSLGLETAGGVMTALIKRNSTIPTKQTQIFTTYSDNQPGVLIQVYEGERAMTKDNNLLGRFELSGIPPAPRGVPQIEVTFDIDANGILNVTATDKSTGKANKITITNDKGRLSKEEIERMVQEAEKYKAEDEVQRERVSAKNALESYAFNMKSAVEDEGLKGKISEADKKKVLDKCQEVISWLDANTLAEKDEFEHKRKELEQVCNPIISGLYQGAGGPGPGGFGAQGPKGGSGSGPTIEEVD
Heat shock cognate 71 kDa protein, sequence (P11142 whole entry): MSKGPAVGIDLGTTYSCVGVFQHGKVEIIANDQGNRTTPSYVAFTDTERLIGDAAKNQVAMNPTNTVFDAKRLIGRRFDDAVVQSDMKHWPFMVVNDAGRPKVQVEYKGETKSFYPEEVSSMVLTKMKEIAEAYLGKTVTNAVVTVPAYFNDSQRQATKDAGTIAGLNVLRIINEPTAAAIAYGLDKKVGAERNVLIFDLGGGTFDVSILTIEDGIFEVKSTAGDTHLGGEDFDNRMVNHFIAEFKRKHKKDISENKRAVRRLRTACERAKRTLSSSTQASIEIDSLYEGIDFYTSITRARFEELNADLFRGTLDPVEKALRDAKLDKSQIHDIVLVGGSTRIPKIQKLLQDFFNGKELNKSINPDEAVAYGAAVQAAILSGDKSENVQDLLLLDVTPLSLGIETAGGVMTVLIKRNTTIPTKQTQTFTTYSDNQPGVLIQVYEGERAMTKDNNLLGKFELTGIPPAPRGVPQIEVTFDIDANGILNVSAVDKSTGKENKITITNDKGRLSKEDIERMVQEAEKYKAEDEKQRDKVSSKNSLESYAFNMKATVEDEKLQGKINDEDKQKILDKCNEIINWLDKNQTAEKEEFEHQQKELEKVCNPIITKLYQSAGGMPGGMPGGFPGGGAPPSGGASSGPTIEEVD
Large T antigen, sequence (P03070 whole entry): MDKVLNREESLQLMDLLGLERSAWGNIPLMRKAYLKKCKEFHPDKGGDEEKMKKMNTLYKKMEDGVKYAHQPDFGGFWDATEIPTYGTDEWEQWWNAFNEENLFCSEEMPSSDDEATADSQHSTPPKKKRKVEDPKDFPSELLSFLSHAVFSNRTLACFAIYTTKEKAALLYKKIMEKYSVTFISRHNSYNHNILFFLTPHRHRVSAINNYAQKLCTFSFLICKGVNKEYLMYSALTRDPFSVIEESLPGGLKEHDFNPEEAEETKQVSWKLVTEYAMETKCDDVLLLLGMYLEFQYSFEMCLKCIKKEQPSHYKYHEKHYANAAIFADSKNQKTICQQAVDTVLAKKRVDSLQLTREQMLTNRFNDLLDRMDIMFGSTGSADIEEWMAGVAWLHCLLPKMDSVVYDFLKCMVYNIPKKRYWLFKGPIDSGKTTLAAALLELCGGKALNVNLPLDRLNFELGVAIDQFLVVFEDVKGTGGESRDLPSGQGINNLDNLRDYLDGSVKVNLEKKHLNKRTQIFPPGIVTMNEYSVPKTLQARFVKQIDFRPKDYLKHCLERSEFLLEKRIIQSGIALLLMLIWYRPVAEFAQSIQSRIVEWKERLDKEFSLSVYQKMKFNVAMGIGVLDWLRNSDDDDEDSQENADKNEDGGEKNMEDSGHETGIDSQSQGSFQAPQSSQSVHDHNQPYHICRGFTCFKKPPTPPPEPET
Eukaryotic translation initiation factor 4E, sequence (P63073 whole entry): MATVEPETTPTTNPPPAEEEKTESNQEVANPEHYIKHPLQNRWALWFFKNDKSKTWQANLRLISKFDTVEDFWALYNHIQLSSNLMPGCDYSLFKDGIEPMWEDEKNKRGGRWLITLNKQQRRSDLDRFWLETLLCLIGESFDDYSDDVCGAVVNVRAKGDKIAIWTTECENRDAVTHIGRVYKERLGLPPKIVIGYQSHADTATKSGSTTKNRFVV
Glyceraldehyde-3-phosphate dehydrogenase, sequence (P04406 whole entry): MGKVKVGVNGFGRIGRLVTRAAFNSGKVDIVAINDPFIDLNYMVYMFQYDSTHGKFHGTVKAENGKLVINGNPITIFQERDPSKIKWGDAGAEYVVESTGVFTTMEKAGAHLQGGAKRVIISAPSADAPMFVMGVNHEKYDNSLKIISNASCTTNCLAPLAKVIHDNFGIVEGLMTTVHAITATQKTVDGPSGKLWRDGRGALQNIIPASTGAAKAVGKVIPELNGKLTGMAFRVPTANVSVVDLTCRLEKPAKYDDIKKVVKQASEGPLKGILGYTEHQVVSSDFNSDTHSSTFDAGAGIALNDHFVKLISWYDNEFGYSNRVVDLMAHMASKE

SMILES	EC50 [1]	EC50 [2]	IC50 [3]	IC50 [4]	EC50 [5]	IC50 [6]	IC50 [7]	IC50 [8]	IC50 [9]	IC50 [10]	IC50 [11]	EC50 [12]	IC50 [13]	IC50 [14]	IC50 [15]	IC50 [16]	IC50 [17]	IC50 [18]	IC50 [19]
O=C(O)C1CC(c2ccccc2O)=NO1 (centres undefined)	> 100 µM (inactive)	> 100 µM (inactive)	–	–	–	–	–	–	–	–	–	–	–	–	–	–	–	–	–
Cc1ccc2c(c1C)NC(C(=O)O)C1CC=CC21 (centres undefined)	–	–	21.9 µM (active)	5.43 µM (active)	21.7 µM (active)	80.8 µM (active)	6.2 µM (active)	30.3 µM (inactive)	7.18 µM (active)	6.55 µM (active)	3.17 µM (active)	37.4 µM (active)	8.68 µM (active)	91.4 µM (active)	1.7 µM (active)	5.96 µM (active)	> 10 µM (not active)	0.858 µM (active)	1.89 µM (active)
